Here are results for 1 compound from patent US9611503B2, “Escherichia coli cell line with thyA knockout and folA knockout” (priority 2011, dated 2017).

Experiment [1] deals with DHFR-TS from Plasmodium malariae (wildtype) (Plasmodium malariae, UniProt A0A1D3JLL1). Kind of experiment: In vitro biochemical enzyme inhibition assay, purified DHFR-TS. The following applies: purified P. malariae wildtype DHFR-TS.
The test system of experiment [2] is E. coli thyA folA KO + Lm wt. Kind of experiment: microbe, parasite or virus in culture. The experiment is classed as cell-based. To be noted: Escherichia coli; host expressing Leishmania major DHFR-TS; 6 hours, OD 600 nm.
Experiment [3] deals with E. coli thyA folA KO + Tg mt. Put plainly: microbe, parasite or virus in culture. The class given is cell-based. To be noted: Escherichia coli; host expressing Toxoplasma gondii double mutant DHFR-TS; 6 hours, OD 600 nm.
Experiment [4] relates to E. coli thyA folA KO + Pv mt. Kind of experiment: microbe, parasite or virus in culture. The experiment is classed as cell-based. To be noted: Escherichia coli; host expressing P. vivax sp21 double mutant DHFR-TS; 6 hours, OD 600 nm.
The test system of experiment [5] is E. coli thyA folA KO + Pf TM4. Kind of experiment: microbe, parasite or virus in culture. The class given is cell-based. The following applies: Escherichia coli; host expressing P. falciparum TM4 DHFR-TS; minimal media with ampicillin, 37 degrees Celsius, 6 hours, OD 600 nm.
For experiment [6], the system named is E. coli thyA folA KO + Tg wt. Kind of experiment: microbe, parasite or virus in culture. The experiment is classed as cell-based. The following applies: Escherichia coli; host expressing Toxoplasma gondii wildtype DHFR-TS; 6 hours, OD 600 nm.
In experiment [7] the test system is E. coli thyA folA KO + Tb wt. Put plainly: microbe, parasite or virus in culture. The experiment is classed as cell-based. The following applies: Escherichia coli, 6 h.
Experiment [8] deals with E. coli thyA folA KO + Pm wt. Kind of experiment: microbe, parasite or virus in culture. The class given is cell-based. The following applies: Escherichia coli; host expressing P. malariae wildtype DHFR-TS; 6 hours, OD 600 nm.
The subject of experiment [9] is E. coli thyA folA KO + Pf K1. Kind of experiment: microbe, parasite or virus in culture. The experiment is classed as cell-based. To be noted: Escherichia coli; host expressing P. falciparum K1 DHFR-TS; minimal media with ampicillin, 37 degrees Celsius, 6 hours, OD 600 nm.
Experiment [10] relates to E. coli thyA folA KO + Pv wt. Kind of experiment: microbe, parasite or virus in culture. The experiment is classed as cell-based. To be noted: Escherichia coli; host expressing P. vivax wildtype DHFR-TS; 6 hours, OD 600 nm.

Sequence of DHFR-TS from Plasmodium malariae (wildtype) (A0A1D3JLL1 entry or part of it): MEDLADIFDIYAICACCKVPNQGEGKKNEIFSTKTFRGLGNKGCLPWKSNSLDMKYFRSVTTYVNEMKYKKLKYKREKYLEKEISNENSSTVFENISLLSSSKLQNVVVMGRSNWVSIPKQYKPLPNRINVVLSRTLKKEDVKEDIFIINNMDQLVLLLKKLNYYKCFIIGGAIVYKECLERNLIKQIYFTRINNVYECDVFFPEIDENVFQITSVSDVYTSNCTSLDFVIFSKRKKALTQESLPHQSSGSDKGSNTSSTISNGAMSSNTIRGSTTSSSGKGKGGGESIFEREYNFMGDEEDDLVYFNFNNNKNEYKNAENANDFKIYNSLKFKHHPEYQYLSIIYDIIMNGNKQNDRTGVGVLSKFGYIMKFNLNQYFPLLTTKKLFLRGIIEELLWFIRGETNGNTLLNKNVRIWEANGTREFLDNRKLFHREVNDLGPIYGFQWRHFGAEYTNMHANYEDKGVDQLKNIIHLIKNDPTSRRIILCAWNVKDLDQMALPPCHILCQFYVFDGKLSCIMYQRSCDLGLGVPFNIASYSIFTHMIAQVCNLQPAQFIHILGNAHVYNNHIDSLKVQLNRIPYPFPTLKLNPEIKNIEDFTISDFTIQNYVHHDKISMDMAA

`CCc1nc(N)nc(N)c1-c1ccc(Cl)cc1` [Pyrimethamine]: in [1], the affinity, expressed as Ki, was 0.00054 ± 6e-05 µM. The 50% inhibitory concentration (IC50) was > 100 µM in experiment [2]; > 100 µM in experiment [3]; > 100 µM in [4]; 0.07 ± 0.01 µM in [5]; > 100 µM in experiment [6]; > 100 µM in [7]. Moreover, the half-inhibitory concentration (IC50) in experiment [8] was 0.77 ± 0.22 µM; in experiment [9], 31.93 ± 0.16 µM; in [10], 3.08 ± 0.33 µM.
